# Data published in ChEMBL document CHEMBL5032491, “New Dibenzoquinoxalines Inhibit Triple-Negative Breast Cancer Growth by Dual Targeting of Topoisomerase 1 and the c-MYC G-Quadruplex” (J Med Chem, 2021).
# Activity calls are given as the source filed them. No cut-off for these calls is given here.
# Key:
# Quadruplex DNA [1] = assay: Binding affinity to c-myc G4-quadruplex DNA (unknown origin) assessed as dissociation constant by fluorescence spectroscopy; assay type: nucleic-acid assay
# CA46 [2] = assay: Downregulation of EXON 2 transcription in human CA46 cells incubated for 24 hrs by RT-PCR analysis; assay type: functional, cell-based
# CA46 [3] = assay: Downregulation of EXON 1 transcription in human CA46 cells incubated for 24 hrs by RT-PCR analysis; assay type: functional, cell-based
# MDA-MB-231 [4] = assay: Induction of cell cycle arrest in human MDA-MB-231 cells assessed as accumulation at G0/G1 phase at 1 uM incubated for 24 hrs by flow cytometry (reference value: 56.6%); assay type: functional
# MDA-MB-231 [5] = assay: Induction of cell cycle arrest in human MDA-MB-231 cells assessed as accumulation at G2/M phase at 2 uM incubated for 24 hrs by flow cytometry (reference value: 20.4%); assay type: functional
# [6] = biological target: T1, DNA topoisomerase 1 (Homo sapiens) (UniProt P11387); assay: Inhibition of human topoisomerase 1 mediated relaxation of supercoiled pHOT1 DNA at 5 to 20 uM incubated for 30 mins by agarose gel electrophoresis; conditions: dose 5-20 µM
# T1 sequence (whole entry): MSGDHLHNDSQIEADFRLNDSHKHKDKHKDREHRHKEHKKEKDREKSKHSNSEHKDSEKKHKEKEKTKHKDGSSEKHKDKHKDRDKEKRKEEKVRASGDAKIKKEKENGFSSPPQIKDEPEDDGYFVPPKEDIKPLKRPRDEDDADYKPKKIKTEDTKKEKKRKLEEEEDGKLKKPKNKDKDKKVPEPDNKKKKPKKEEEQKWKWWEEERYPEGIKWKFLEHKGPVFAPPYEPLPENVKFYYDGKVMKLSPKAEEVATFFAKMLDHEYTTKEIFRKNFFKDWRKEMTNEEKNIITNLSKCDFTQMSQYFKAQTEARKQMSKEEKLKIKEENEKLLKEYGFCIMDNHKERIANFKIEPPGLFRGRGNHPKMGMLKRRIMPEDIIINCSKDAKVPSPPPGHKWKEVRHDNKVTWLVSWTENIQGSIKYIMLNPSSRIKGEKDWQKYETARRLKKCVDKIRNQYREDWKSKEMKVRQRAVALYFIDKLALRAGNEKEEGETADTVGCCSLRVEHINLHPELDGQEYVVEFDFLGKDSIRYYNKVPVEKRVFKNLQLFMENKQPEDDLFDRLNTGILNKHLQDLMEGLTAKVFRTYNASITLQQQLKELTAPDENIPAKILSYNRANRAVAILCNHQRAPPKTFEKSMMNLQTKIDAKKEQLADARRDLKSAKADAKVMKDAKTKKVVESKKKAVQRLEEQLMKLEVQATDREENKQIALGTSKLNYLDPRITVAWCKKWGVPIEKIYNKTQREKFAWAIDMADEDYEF
# Quadruplex DNA [7] = assay: Binding affinity to c-myc G4-quadruplex DNA (unknown origin) by UV-Vis spectrophotometric method; assay type: nucleic-acid assay
# CA46 [8] = assay: Downregulation of c-MYC transcription expression in human CA46 cells incubated for 24 hrs by RT-PCR analysis; assay type: functional, cell-based
# [9] = Antiproliferative activity against human BJ fibroplast assessed as inhibition of cell growth incubated for 24 hrs by CCK8 assay; conditions: Fibroblast
# MDA-MB-231 [10] = assay: Induction of cell cycle arrest in human MDA-MB-231 cells assessed as accumulation at sub-G1 phase at 0.5 uM incubated for 24 hrs by flow cytometry (reference value: 2.8%); assay type: functional
# MDA-MB-231 [11] = assay: Induction of cell cycle arrest in human MDA-MB-231 cells assessed as accumulation at G2/M phase at 0.5 uM incubated for 24 hrs by flow cytometry (reference value: 20.4%); assay type: functional
# [12] = biological target: T1, DNA topoisomerase 1 (Homo sapiens); assay: Poison activity at human topoisomerase 1 assessed as formation of cleavage complex using pHOT-1 DNA as substrate incubated for 30 mins by agarose gel electrophoresis
# MDA-MB-231 [13] = assay: Inhibition of HRAS gene transcription expression in human MDA-MB-231 cells at 0.5 to 2 uM incubated for 24 hrs by RT-PCR analysis; assay type: functional, cell-based; conditions: dose 0.5-2 µM
# MDA-MB-231 [14] = assay: Antitumor activity against human MDA-MB-231 cells xenografted in BALB/c mouse assessed as tumor growth inhibition measured at 5 mg/kg, IP administered every other day for 20 days; assay type: functional; conditions: MDA-MB-231, ip, 480 h, time 20 day, read-out: TGI
# [15] = Toxicity in human MDA-MB-231 cells xenografted BALB/c mouse assessed as body weight loss at 2.5 to 5 mg/kg, ip administered every other day for 20 days; assay type: organism-based; conditions: in vivo, 480 h, dose 2.5-5 mg/kg, time 20 day
# Quadruplex DNA [16] = assay: Binding affinity to c-myc G4-quadruplex DNA Pu22 (unknown origin) by NMR spectroscopy; assay type: nucleic-acid assay
# MDA-MB-231 [17] = assay: Anticlonogenic activity against human MDA-MB-231 cells assessed as inhibition of colony formation incubated for 7 days by crystal violet staining based assay; assay type: functional, cell-based; conditions: time 7.0 day
# Calf thymus DNA [18] = assay: Binding affinity to duplex calf thymus DNA assessed as dissociation constant; assay type: nucleic-acid assay, Bos taurus
# MDA-MB-231 [19] = assay: Induction of cell cycle arrest in human MDA-MB-231 cells assessed as accumulation at G0/G1 phase at 0.5 uM incubated for 24 hrs by flow cytometry (reference value: 56.6%); assay type: functional
# MDA-MB-231 [20] = assay: Inhibition of c-Myc protein expression in human MDA-MB-231 cells at 0.5 to 2 uM incubated for 24 hrs by Western blot analysis; assay type: functional, cell-based; conditions: dose 0.5-2 µM
# Calf thymus DNA [21] = assay: Binding affinity to duplex calf thymus DNA assessed as dissociation constant by fluorescence spectroscopy; assay type: nucleic-acid assay, Bos taurus
# MDA-MB-231 [22] = assay: Antitumor activity against human MDA-MB-231 cells xenografted in BALB/c mouse assessed as tumor growth inhibition measured at 2.5 mg/kg, ip administered every other day for 20 days; assay type: functional; conditions: MDA-MB-231, ip, 480 h, time 20 day, read-out: TGI
# MDA-MB-231 [23] = assay: Inhibition of cell migration in human MDA-MB-231 cells incubated for 24 hrs by wound scrape assay; assay type: functional, cell-based
# MDA-MB-231 [24] = assay: Induction of cell cycle arrest in human MDA-MB-231 cells assessed as accumulation at S phase at 1 uM incubated for 24 hrs by flow cytometry (reference value: 19.2%); assay type: functional
# [25] = biological target: T1, DNA topoisomerase 1 (Homo sapiens); assay: Inhibition of human topoisomerase 1 assessed as DNA intercalation at 1.2 to 10 uM using relaxed pHOT-1 DNA as substrate preincubated with DNA for 10 mins followed by enzyme addition and measured after 30 mins by agarose gel electrophoresis; conditions: dose 1.2-10 µM, time 40.0 min
# MDA-MB-231 [26] = assay: Induction of cell cycle arrest in human MDA-MB-231 cells assessed as accumulation at G0/G1 phase at 2 uM incubated for 24 hrs by flow cytometry (reference value: 56.6%); assay type: functional
# MDA-MB-231 [27] = assay: Induction of cell cycle arrest in human MDA-MB-231 cells assessed as accumulation at sub-G1 phase at 1 uM incubated for 24 hrs by flow cytometry (reference value: 2.8%); assay type: functional
# MDA-MB-231 [28] = assay: Antitumor activity against human MDA-MB-231 cells xenografted in ip dosed BALB/c mouse assessed as tumor growth inhibition administered every other day for 20 days; assay type: functional, organism-based; conditions: dose 2.5-5 […], time 20.0 day
# MDA-MB-231 [29] = assay: Inhibition of c-Myc gene transcription expression in human MDA-MB-231 cells at 0.5 to 2 uM incubated for 24 hrs by RT-PCR analysis; assay type: functional, cell-based; conditions: dose 0.5-2 µM
structure (smiles),measurement,setting,value
COc1ccc2nc3c4ccc(N5CCN(C)CC5)cc4c4cc(N5CCN(C)CC5)ccc4c3nc2c1,Kd,Quadruplex DNA [1],600 nM
same,Activity,CA46 [2],inactive
same,Activity,CA46 [3],Active
same,Activity,MDA-MB-231 [4],50%
same,Activity,MDA-MB-231 [5],21.2%
same,inhibition,[6],Active
same,Activity,Quadruplex DNA [7],Active
same,Activity,CA46 [8],inactive
same,IC50,[9],5.6 µM
same,Activity,MDA-MB-231 [10],3.1%
same,Activity,MDA-MB-231 [11],21.7%
same,Activity,[12],inactive
same,inhibition,MDA-MB-231 [13],inactive
same,inhibition in vivo at 5 mg/kg,MDA-MB-231 [14],66%
same,Activity,[15],Non-Toxic
same,Activity,Quadruplex DNA [16],Active
same,Activity,MDA-MB-231 [17],Dose-Dependent Effect
same,Kd,Calf thymus DNA [18],8.3 µM
same,Activity,MDA-MB-231 [19],54.4%
same,inhibition,MDA-MB-231 [20],inactive
same,Kd,Calf thymus DNA [21],12.7 µM
same,inhibition in vivo at 2.5 mg/kg,MDA-MB-231 [22],52%
same,inhibition,MDA-MB-231 [23],Active
same,Activity,MDA-MB-231 [24],20.4%
same,inhibition,[25],Active
same,Activity,MDA-MB-231 [26],38.9%
same,Activity,MDA-MB-231 [27],4.7%
same,Activity,MDA-MB-231 [28],Dose-Dependent Effect
same,inhibition,MDA-MB-231 [29],Active
